Results reported in US8349835B2, “Aromatic ring fused triazine derivatives and uses thereof” (Shenyang Pharmaceutical University, priority 2008, dated 2013).

Key:
[1] = test system: chorioallantoic membrane vessels; assay: Activity test by chick chorioallantoic membrane method; type: in vivo; conditions: 5 uL medicine on cellulose membrane, chick embryo, 2 days
Description: After the shell membrane became wet, tore it open with ophthalmological tweezers so to expose the chorioallantoic membrane. • 6) Added 5 uL of selected medicine to a 0.5×0.5 cm cellulose membrane sterilized by high pressure, then set the membrane on the part of the chorioallantoic membrane with fewer vessels • 7) Closed the window, and put the embryos back into the hatch box to hatch for 2 days. • 8) Opened the transparent tape, and then opened the mixed cellulose membrane lightly with a tweezers. Measured the avascular area and took photographs.

Rat aortic ring = assay: Rat Aortic Ring Assay; type: cell-based; conditions: for Rat Aortic Ring Assay (10 ug/ml), result in words: observed on the sixth day; for inhibition at 10 µg/mL: Rattus norvegicus, 10 ug/ml, compared with blank control, sixth day
Source text: Rat Aortic Ring Assay • 1) 6 week old SD […] (Sprague Dawley) were selected for the experiments. Cleaned abdominal skin with 75% ethanol to disinfect, and then anesthetized the mice with ether, • 2) Carefully removed the abdominal aortas and transferred the aortas to normal saline. Excessive vascular tissues were carefully removed with scissors. • 3) The aortas were rinsed with normal saline until no blood stain remained. • 4) Sectioned the aortas into one millimeter depth arterial slices with ophthalmological scissors. • 5) Add 50 μL pre-thawed Matrigel to each well of the pre-cooled 96 well cell culture plates, and embedded the ring-shaped mouse aortas in collagen gel. • 6) Incubated for 60 minutes at 37° C. to solidificate the gel. • 7) Added DMEM culture solution containing 10% FBS, along with different concentrations of the selected compounds into the wells and cultured in the incubator. Every compound was repeated in no less than 3 wells. • 8) Replaced with the fresh medium and changed the medicine once on the third day. • 9) Took out the pates on the sixth day, and observed the vascular growth with Microscope (OLYMPUS, DP70, Japan) and took photographs(×100). Randomly chose 3 arterial rings to photograph and calculated the area covered by micro-vascular with Image Pro Plus software. The inhibition rate is calculated as:
[formula] • Evaluation criteria: ⋆inhibition rate[…]; ⋆⋆inhibition rate 60-90%; ⋆⋆⋆inhibition rate>90%.

VEGFR-2 = VEGFR-2 (Homo sapiens, UniProt P35968); assay: VEGFR-2 inhibition rate test (kinase assay kit, colorimetric ELISA); conditions: concentration not given
[2] = test system: Microvascular Endothelial Cells (MVEC); assay: MTT growth inhibition of MVEC; type: cell-based; conditions: Endothelial cell, 96 h, 4 days culture with drug, read-out: IG50 on inhibiting growth of MVEC
Description: In Vitro Anti-Tumor Activity Test
Put cell suspension into centrifugal tubes with a pipette under sterile conditions, then the cell suspension was centrifuged for 3 minutes at 1300 rpm. Discarded the supernatant lightly and added fresh culture medium. Mixed the cells by pipetting, then transferred the cells into culture flasks, and put them into the CO2 incubator. Changed the culture medium once after 24 hours.
Human prostate cancer cells (DU145, PC-3) were cultured in a medium containing RPMI1640 basic medium supplemented with 10% heat-inactivated FBS, 100 IU/mL penicillin, 100 μg/mL streptomycin and 1 mmol/L L-glutamine. Human breast carcinoma cells (T47D, MDA-MB231) were cultured in a medium containing RPM11640 basic medium supplemented with 10% heat-inactivated FBS, 5 μg/mL insulin, 100 IU/mL penicillin, 100 μg/mL streptomycin and 1 mmol/L L-glutamine. Human breast carcinoma cells (MCF-7) were cultured in a medium containing DMEM basic medium supplemented with 10% heat-inactivated FBS, 5 μg/mL insulin, 100 IU/mL penicillin, 100 μg/mL streptomycin and […]. Murine Lewis lung cancer cells (LL/2), murine melanoma cells (B16FD) and Microvascular Endothelial Cells (MVEC) were cultured in a medium containing DMEM basic medium supplemented with 10% heat-inactivated FBS, 4.5 g/L glucose, 1.5 g/L NaHCO3, 100 IU/mL penicillin, 100 μg/mL streptomycin and 4 mmol/L L-glutamine. All these cell lines were incubated at 37° C. biochemical incubator with 5% CO2 saturated humidity.
After resuscitation, the cells were passed for 2-3 generations till they became stable, then they were used for the experiments. Each passage was based on the standard that all cells were spread over the bottoms of culture flasks.
Cells were digested off from the bottoms of culture flasks with trypsin (0.25%). The cell dissociation buffer was transferred into centrifuge tubes, added medium to stop the digestion, and centrifuged for 3 minutes at 1300 rpm. Discarded the supernatant lightly and added fresh culture medium (5 mL). Mixed the cells by pipetting, then added 10 μL of the cell suspension into the cell counting plate, and adjusted the cell concentration to 2×10^4 cells/mL. Added 100 μL of the cell suspension to all wells on the 96 well plates, except A1 well as the blank control. Put the plates into the biochemical incubator for 24 hours and to make sure the cells grew along the walls.
The drugs were dissolved in 80 mmol/L DMSO first, and then diluted the drugs with ethanol to 8 mmol/L. The solution was further diluted with the culture medium to different concentrations as 160 μmol/L, 120 μmol/L, 80 μmol/L, 40 μmol/L, 20 μmol/L and 10 μmol/L. Added 100 μL of the drug solution to each well on the 96 well plates. Therefore, the final concentrations of the drugs that were added to the cells were 80 μmol/L, 40 μmol/L, 20 μmol/L, 10 μmol/L and 5 μmol/L, and each concentration were repeated in three parallel wells. Put the culture plates into the biochemical incubator to culture continuously for 4 days.
Added 50 μL MTT liquids (2 mg/mL) into each well, put the culture plates into the biochemical incubator for 4 h, discarded MTT liquids (TCC), added 200 μL DMSO, then oscillated for 10 minutes on the magnetic oscillator to make sure that the survived cells and the reaction product of MTT were fully dissolved. Detected and recorded the absorbance (OD) values of each well at the wavelength of 570 nm using the microplate reader. The OD values of cells without tested drugs were used as control. The cell growth inhibition rates under each drug concentration were calculated by the following formula. […] Inhibition rate of growth(%)=(1−The absorbance(OD)of cells with tested drugs/The absorbance(OD)of the blank control group)×100%
The absorbance (OD) of cells with tested drugs: OD value is measured with the test drugs.
The absorbance (OD) of the blank control group: OD value is measured without the test drugs. […]

VEGFR-2, sequence (P35968 20-1356): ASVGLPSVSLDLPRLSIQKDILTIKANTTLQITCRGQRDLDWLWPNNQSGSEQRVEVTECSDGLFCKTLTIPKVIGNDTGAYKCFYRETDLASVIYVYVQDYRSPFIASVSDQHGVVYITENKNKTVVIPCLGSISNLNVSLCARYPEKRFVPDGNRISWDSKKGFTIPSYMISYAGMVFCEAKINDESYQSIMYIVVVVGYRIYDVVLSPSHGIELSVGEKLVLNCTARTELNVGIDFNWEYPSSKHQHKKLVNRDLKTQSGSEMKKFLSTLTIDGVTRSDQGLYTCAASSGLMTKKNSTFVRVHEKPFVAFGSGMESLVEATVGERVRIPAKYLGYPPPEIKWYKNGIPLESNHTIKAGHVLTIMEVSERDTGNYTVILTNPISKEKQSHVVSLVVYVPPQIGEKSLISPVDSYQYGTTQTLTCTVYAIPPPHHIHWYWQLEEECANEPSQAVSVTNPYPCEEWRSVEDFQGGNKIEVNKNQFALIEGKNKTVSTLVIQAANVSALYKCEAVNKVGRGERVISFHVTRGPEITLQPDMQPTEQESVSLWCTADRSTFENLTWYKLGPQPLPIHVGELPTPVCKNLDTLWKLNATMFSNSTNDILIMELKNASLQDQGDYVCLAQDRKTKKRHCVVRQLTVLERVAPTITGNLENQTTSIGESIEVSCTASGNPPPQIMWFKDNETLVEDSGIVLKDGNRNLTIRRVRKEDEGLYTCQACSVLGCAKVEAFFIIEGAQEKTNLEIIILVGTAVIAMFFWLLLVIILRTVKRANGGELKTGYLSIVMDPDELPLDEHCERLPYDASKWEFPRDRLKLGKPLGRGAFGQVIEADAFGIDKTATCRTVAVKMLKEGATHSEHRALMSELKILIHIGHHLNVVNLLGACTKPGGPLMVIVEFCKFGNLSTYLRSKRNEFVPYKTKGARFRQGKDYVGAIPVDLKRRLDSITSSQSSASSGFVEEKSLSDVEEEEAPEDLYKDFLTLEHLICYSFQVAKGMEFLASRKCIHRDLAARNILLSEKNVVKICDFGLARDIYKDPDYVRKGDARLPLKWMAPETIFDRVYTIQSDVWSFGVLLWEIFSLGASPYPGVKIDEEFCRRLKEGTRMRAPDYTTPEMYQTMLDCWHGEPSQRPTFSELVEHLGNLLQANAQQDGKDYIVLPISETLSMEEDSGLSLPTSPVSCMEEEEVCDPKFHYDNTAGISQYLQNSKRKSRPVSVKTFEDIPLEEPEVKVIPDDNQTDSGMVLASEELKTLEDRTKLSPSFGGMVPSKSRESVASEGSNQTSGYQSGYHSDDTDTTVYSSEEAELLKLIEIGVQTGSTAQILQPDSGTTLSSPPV

SMILES | The inhibitory effect on the growth of chorioallantoic membrane vessels [1] | Rat Aortic Ring Assay (10 ug/ml), result in words (Rat aortic ring) | Kinase inhibition rate (VEGFR-2) (VEGFR-2) | IC50 [2] [µM] | inhibition at 10 µg/mL (Rat aortic ring) [%]
COc1cc2c(Nc3ccccc3F)nnnc2cc1OCCCCl [Example 74, 6-methoxy-7-chloropropoxy-4-(2-fluoroanilino)-benzo[d][1,2,3]triazine] | The vessels become rare and are fractured at the zone covered by paper. | Vessel density was small, cells were elongated and cell | 0.26 | – | –
Clc1cccc(Nc2nnnc3ccccc23)c1 [Example 4, 4-(3-chloroanilino)-benzo[d][1,2,3]triazine] | The vascular growth is abundant | – | 12.83 | – | –
Clc1cccc(Nc2nnnc3ccc(Cl)nc23)c1 [Example 88, 6-chloro-4-(3-chloroanilino)pyrido[3,2-d][1,2,3]triazine] | – | Almost complete inhibition (10 μg/mL), vascular ring was dead | 2.39 | 12.7 | –
CCOc1cc2nnnc(Nc3cccc(Br)c3)c2cc1OC [Example 42, 6-methoxy-7-ethoxy-4-(3-bromoanilino)-benzo[d][1,2,3]triazine] | One of the two samples exhibits inhibition | – | – | – | ~40
CCCCOc1cc2nnnc(Nc3cccc(Cl)c3)c2cc1OC [Example 21, 6-methoxy-7-n-butoxy-4-(3-chloroanilino)-benzo[d][1,2,3]triazine] | The vessels covered by paper become thinner, and another embryo is dead. | No significant inhibition | 2.40 | – | –
CCCCCOc1cc2nnnc(Nc3ccc(F)cc3)c2cc1OC [Example 59, 6-methoxy-7-pentyloxy-4-(4-fluoroanilino)-benzo[d][1,2,3]triazine] | The vessels become fewer, but not thinner. The medicine precipitates out. | No significant inhibition | – | – | –
COc1cc2c(Nc3ccc(Br)c(F)c3)nnnc2cc1OCCCCl [Example 62, 6-methoxy-7-chloropropoxy-4-(3-fluoro-4-bromoanilino)-benzo[1,2,3]triazine] | The embryo is dead. | No significant inhibition | 18.10 | – | –
FC(F)(F)Oc1ccc(Nc2nnnc3ccccc23)cc1 [Example 6, 4-(4-trifluoromethoxyanilino)-benzo[d][1,2,3]triazine] | One of the two samples exhibits significant fracture, | No significant inhibition | −33.42 | – | –
CCCCOc1cc2nnnc(Nc3ccc(OC(F)(F)F)cc3)c2cc1OC [Example 20, 6-methoxy-7-n-butoxy-4-(4-trifluoromethoxyanilino)-benzo[d][1,2,3]triazine] | One of the two samples exhibits significant inhibition, and the other | Cell proliferation and migration were not significantly affected, | – | – | –
CCCCCOc1cc2nnnc(Nc3cccc(C(F)(F)F)c3)c2cc1OC [Example 50, 6-methoxy-7-pentyloxy-4-(3-trifluoromethylanilino)-benzo[d][1,2,3]triazine] | One of the two samples exhibits inhibition ring. | No significant inhibition compared with the blank control | −9.35 | – | –
Fc1cc(F)cc(Nc2nnnc3ccc(Cl)nc23)c1 [Example 81, 6-chloro-4-(3,5-difluoroanilino)pyrido[3,2-d][1,2,3]triazine] | – | Almost complete inhibition (10 μg/mL), vascular ring was dead. | −6.44 | 10.3 | –
CCCCOc1cc2nnnc(Nc3cc(Cl)cc(Cl)c3)c2cc1OC [Example 13, 6-methoxy-7-n-butoxy-4-(3,5-dichloroanilino)-benzo[d][1,2,3]triazine] | – | No significant inhibition | −9.89 | 3.17 | –
CCOc1cc2nnnc(Nc3cccc(C(F)(F)F)c3)c2cc1OC [Example 34, 6-methoxy-7-ethoxy-4-(3-trifluoromethylanilino)-benzo[d][1,2,3]triazine] | One of the two samples exhibits significant inhibition zone, and the other | – | – | – | > 80
CCOc1cc2nnnc(Nc3ccccc3F)c2cc1OC [Example 41, 6-methoxy-7-ethoxy-4-(2-fluoroanilino)-benzo[d][1,2,3]triazine] | One embryo is dead, and the other exhibits no significant inhibition | No significant inhibition | – | – | –
CCOc1cc2nnnc(Nc3cccc(Cl)c3)c2cc1OC [Example 38, 6-methoxy-7-ethoxy-4-(3-chloroanilino)-benzo[d][1,2,3]triazine] | One embryo is dead. | No significant inhibition | – | – | –
COc1cc2c(Nc3ccc(OC(F)(F)F)cc3)nnnc2cc1OCCCCl [Example 70, 6-methoxy-7-chloropropoxy-4-(4-trifluoromethoxyanilino)-benzo[d][1,2,3]triazine] | – | – | 16.65 | 23.2 | > 50
